Test results as given in ChEMBL document CHEMBL1201862, “PubChem BioAssay data set” (2004).
The source made the active and inactive calls.

Legend:
[1] = target: Sphingosine 1-phosphate receptor 2 (Homo sapiens, UniProt O95136); experiment: Late stage counterscreen assay for S1P4 antagonists: Fluorescence dose response cell-based screening assay for antagonists of the Sphingosine 1-Phosphate Receptor 2 (S1P2). [Related pubchem assays (depositor defined):AID1510, AID1524, AID1692, AID1853, AID2332, AID489009, AID489017]; type: functional
[2] = target: Sphingosine 1-phosphate receptor 5 (Homo sapiens, UniProt Q9H228); experiment: Late stage counterscreen assay for S1P4 antagonists: Fluorescence dose response cell-based screening assay for antagonists of the Sphingosine 1-Phosphate Receptor 5 (S1P5). [Related pubchem assays (depositor defined):AID1510, AID1524, AID1692, AID1853, AID2332, AID489009, AID489017]; type: functional
[3] = Late-stage results from the probe development effort to identify antagonists of the Sphingosine 1-Phosphate Receptor 4 (S1P4): luminescence-based cell-based dose response assay to determine cytotoxicity of antagonist compounds. [Related pubchem assays (depositor defined):AID1510, AID1524, AID1564, AID1692, AID1821, AID1853, AID2332, AID2346, AID2349, AID2350, AID2351, AID2354]; type: functional
[4] = target: Sphingosine 1-phosphate receptor 3 (Homo sapiens, UniProt Q99500); experiment: Late stage counterscreen assay for S1P4 antagonists: Fluorescence dose response cell-based screening assay for antagonists of the Sphingosine 1-Phosphate Receptor 3 (S1P3). [Related pubchem assays (depositor defined):AID1510, AID1524, AID1692, AID1853, AID2332, AID489009, AID489017]; type: functional
[5] = target: Sphingosine 1-phosphate receptor 1 (Homo sapiens, UniProt P21453); experiment: Late stage counterscreen assay for S1P4 antagonists: Fluorescence dose response cell-based screening assay for antagonists of the Sphingosine 1-Phosphate Receptor 1 (S1P1). [Related pubchem assays (depositor defined):AID1510, AID1524, AID1692, AID1853, AID2332, AID489009, AID489017]; type: functional
[6] = target: T1, Intestinal-type alkaline phosphatase (Homo sapiens, UniProt P09923); experiment: human intestinal alkaline phosphatase activators, dose response, biochemical, luminescence, uHTS hits (AID 463120); type: functional
[7] = target: Nucleotide-binding oligomerization domain-containing protein 2 (Homo sapiens, UniProt Q9HC29); experiment: PubChem AID 2334; type: functional
[8] = target: Nucleotide-binding oligomerization domain-containing protein 1 (Homo sapiens, UniProt Q9Y239); experiment: blockers of NOD1 pathway activity – revised, SAR follow-up (AID 2333); type: functional
[9] = target: Intestinal-type alkaline phosphatase (Mus musculus, UniProt P24822); experiment: PubChem AID 488874; type: functional
Tumor necrosis factor = Tumor necrosis factor (Homo sapiens, UniProt P01375); experiment: analog potency on TNFa NF-kB signaling – cell-based, revised, SAR follow-up (AID 2337); type: functional
[10] = target: T2, Alkaline phosphatase, tissue-nonspecific isozyme (Homo sapiens, UniProt P05186); experiment: activation of tissue-nonspecific alkaline phosphatase – biochemical, TNAP isozyme, human IAP uHTS hits, selectivity assay for human IAP activator project, dose response (AID 488886); type: functional;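 note: potency of compounds raising TNAP activity as a selectivity check on IAP activators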
T2 sequence (P05186 whole entry): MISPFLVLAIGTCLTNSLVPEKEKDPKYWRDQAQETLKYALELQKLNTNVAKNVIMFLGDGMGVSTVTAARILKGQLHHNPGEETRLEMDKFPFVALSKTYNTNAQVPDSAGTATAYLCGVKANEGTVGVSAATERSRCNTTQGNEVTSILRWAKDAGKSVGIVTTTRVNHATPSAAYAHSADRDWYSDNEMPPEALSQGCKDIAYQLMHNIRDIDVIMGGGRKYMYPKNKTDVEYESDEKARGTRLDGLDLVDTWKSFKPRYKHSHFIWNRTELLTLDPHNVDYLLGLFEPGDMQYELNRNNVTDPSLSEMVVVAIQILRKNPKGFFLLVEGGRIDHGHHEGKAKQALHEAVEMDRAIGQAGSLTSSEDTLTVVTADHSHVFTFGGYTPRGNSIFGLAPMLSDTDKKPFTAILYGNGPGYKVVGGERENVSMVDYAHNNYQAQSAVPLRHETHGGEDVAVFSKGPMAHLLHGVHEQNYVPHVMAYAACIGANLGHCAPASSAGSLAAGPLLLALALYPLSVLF

HEK293 = experiment: cells; conditions: Homo sapiens;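 note: cells exposed to compound for 14 hours overnight before viability readout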
[11] = target: T1, Intestinal-type alkaline phosphatase; experiment: activation of human intestinal alkaline phosphatase – biochemical, luminescent, uHTS hits, set 2, dose response (AID 488817); type: functional;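 note: potency of activators that raise enzyme activity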
cells = type: functional, cell-based; conditions: HEK-CNG
Galanin receptor type 3 = target: T3, Galanin receptor type 3 (Homo sapiens, UniProt O60755); experiment: Fluorescence-based cell-based primary high throughput dose response assay to identify antagonists of the Galanin Receptor 3 (GalR3).; type: functional
T3 sequence (O60755 whole entry): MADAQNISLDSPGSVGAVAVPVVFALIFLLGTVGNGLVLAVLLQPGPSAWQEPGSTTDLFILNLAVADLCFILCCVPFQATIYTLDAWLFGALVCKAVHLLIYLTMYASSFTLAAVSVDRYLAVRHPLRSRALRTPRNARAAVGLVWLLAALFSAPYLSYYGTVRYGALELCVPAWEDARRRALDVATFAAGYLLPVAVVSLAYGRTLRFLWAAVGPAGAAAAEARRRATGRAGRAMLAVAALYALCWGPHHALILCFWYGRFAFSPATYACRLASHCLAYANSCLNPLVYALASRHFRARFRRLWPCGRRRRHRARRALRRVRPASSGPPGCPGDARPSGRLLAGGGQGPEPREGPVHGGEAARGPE

[12] = Trypanosoma cruzi growth suppression in host cells – NIH3T3 host cells, beta-gal luminescence, confirmation (AID 2044); type: functional, cell-based;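 note: intracellular parasites grown in NIH/3T3 mouse fibroblasts as host cells; luminescent beta-galactosidase reporter signal from transgenic T. cruzi replicating inside host cells; inhibitors lower the luminescence signal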
[13] = target: T4, Tyrosine-protein phosphatase non-receptor type 22 (Homo sapiens, UniProt Q9Y2R2); type: functional
T4 sequence (Q9Y2R2 whole entry): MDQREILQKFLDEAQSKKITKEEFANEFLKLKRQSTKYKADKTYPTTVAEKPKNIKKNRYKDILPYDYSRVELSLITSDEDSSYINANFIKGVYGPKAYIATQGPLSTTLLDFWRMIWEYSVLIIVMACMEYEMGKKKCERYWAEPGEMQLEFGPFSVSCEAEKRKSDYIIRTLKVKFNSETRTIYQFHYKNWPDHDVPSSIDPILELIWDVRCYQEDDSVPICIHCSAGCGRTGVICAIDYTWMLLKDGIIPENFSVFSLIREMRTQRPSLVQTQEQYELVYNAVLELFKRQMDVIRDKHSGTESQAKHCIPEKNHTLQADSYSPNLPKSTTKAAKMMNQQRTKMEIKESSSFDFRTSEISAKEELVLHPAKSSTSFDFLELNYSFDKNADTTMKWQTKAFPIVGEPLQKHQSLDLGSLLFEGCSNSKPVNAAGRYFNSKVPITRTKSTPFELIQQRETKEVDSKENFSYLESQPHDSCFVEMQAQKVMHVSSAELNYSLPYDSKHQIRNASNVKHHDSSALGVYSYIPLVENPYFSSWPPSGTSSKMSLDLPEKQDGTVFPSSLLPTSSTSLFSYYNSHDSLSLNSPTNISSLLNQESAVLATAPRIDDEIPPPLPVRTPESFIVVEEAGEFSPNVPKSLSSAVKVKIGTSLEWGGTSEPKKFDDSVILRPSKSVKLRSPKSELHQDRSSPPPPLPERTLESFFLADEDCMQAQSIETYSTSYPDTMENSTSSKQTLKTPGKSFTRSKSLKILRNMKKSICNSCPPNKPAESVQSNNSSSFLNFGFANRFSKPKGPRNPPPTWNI

[14] = target: T4, Tyrosine-protein phosphatase non-receptor type 22; type: functional; remark: listed apart in the source
[15] = NIH3T3 cell viability loss – ATP luminescence, mouse fibroblasts, counter-screen, dose response (AID 2010); type: functional, cell-based;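 note: cells exposed to compound for about 90 hours before reading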
[16] = target: T5, Tyrosine-protein phosphatase non-receptor type 7 (Homo sapiens, UniProt P35236); type: functional
T5 sequence (P35236 whole entry): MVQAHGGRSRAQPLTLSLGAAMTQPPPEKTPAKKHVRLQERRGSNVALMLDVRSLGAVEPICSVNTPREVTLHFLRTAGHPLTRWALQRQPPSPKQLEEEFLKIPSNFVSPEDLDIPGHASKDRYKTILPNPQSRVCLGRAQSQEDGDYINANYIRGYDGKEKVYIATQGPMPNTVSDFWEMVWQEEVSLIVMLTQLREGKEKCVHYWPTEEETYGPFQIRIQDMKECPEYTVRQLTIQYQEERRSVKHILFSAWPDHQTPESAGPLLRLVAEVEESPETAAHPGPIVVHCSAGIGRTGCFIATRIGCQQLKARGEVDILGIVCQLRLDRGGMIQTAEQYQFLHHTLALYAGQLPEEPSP

SUMO E1/E2 = SUMO E1/E2 (Homo sapiens, UniProt P63279+Q9UBE0+Q9UBT2); experiment: SAR analysis of SUMOylation using HTRF in an in-Vitro dose response assay. [Related pubchem assays (depositor defined):AID2006, AID2011, AID2018, AID2069, AID2658]; type: functional
[17] = non-specific 3'UTR reporter inhibition in Clone20-Shn3RL – cell-based, Renilla luciferase, cherry-picked, counter-screen for Shn3 inhibitor project, dose response (AID 624133); type: functional
Mu-type opioid receptor = Mu-type opioid receptor (Homo sapiens, UniProt P35372); experiment: HTS Image-Based Screen for Agonists of the MOR Receptor. [Related pubchem assays (depositor defined):AID1777, AID1785, AID1786, AID2133]; type: functional;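 note: imaging of beta-arrestin GFP recruitment into spots after receptor activation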
Mucolipin-3 = target: T6, Mucolipin-3 (Homo sapiens, UniProt Q8TDD5); experiment: Dose response cell-based high-throughput screening assay for agonists of the transient receptor potential channel ML3 (TRPML3). [Related pubchem assays: 1526, 1424, 1448 ]; type: functional
T6 sequence (Q8TDD5 whole entry): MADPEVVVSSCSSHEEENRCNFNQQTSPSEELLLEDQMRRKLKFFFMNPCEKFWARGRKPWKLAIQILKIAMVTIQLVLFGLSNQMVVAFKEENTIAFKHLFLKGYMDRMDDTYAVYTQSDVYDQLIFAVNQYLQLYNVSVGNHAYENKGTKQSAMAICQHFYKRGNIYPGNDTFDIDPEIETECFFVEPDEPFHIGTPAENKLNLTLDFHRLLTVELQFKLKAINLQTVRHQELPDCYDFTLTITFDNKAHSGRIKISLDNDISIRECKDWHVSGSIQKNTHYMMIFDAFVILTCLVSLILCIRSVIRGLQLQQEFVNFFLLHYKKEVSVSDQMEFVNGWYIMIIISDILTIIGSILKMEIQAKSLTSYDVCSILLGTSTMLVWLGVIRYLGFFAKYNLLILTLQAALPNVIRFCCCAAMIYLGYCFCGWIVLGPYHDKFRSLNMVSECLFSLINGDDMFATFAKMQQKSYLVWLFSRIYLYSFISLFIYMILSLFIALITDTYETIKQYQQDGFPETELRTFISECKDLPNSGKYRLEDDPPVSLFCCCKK

[18] = target: T7, Delta-type opioid receptor (Homo sapiens, UniProt P41143); experiment: HTS Image-Based Screen for Agonists of the DOR Receptor. [Related pubchem assays (depositor defined):AID1777, AID1786, AID2133]; type: functional
Ion channel NompC = Ion channel NompC (Danio rerio, UniProt Q7T1G6); experiment: Fluorescence counterscreen assay for TRPML3 agonists: dose response cell-based high-throughput screening assay to identify agonists of the transient receptor potential channel N1 (TRPN1). [Related pubchem assays: 1526, 1424, 1448 ]; type: functional
[19] = target: T8, Kappa-type opioid receptor (Homo sapiens, UniProt P41145); type: functional
[20] = target: T7, Delta-type opioid receptor; experiment: HTS Image-Based Screen for Antagonists of the DOR Receptor. [Related pubchem assays (depositor defined):AID1777, AID1785, AID1786, AID2133]; type: functional
[21] = target: T8, Kappa-type opioid receptor; type: functional; remark: listed apart in the source
[22] = reduction of Shn3 3'UTR-driven luciferase in osteoblasts – cell-based, Clone20 osteoblasts, firefly luciferase, cherry-picked, dose response (AID 624132); type: functional;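 note: firefly luciferase luminescence from reporter carrying the Shn3 3'UTR in osteoblasts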
[23] = loss of viability in HepG2 cells – cell-based, CellTiter-Glo, cherry-picked, cytotoxicity control for Shn3 inhibitor project, dose response (AID 624134); type: functional

T7 sequence (P41143 whole entry): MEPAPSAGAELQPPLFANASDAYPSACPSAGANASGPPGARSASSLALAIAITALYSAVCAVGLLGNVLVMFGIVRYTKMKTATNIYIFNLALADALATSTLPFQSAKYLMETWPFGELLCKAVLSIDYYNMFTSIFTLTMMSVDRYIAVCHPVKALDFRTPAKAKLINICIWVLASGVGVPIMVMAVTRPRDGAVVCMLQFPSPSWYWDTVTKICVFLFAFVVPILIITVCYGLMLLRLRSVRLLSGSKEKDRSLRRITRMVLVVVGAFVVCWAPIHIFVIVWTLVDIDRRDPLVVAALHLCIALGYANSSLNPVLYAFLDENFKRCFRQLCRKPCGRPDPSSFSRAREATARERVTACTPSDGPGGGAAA
T1 sequence (P09923 whole entry, the tested form may be a part): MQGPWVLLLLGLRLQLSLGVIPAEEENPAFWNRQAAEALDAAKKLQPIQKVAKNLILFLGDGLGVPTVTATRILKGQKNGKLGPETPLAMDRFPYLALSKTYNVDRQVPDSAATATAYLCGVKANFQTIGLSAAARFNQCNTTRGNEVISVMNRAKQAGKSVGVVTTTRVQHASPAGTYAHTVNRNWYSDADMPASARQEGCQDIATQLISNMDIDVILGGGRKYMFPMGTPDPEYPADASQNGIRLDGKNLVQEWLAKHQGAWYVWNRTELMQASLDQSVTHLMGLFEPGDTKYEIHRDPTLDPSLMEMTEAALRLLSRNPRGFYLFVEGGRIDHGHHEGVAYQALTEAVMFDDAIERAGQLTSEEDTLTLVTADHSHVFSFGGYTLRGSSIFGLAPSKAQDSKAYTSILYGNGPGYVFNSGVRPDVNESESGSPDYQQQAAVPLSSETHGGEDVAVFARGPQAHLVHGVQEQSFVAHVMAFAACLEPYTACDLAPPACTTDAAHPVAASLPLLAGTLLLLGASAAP
T8 sequence (P41145 whole entry): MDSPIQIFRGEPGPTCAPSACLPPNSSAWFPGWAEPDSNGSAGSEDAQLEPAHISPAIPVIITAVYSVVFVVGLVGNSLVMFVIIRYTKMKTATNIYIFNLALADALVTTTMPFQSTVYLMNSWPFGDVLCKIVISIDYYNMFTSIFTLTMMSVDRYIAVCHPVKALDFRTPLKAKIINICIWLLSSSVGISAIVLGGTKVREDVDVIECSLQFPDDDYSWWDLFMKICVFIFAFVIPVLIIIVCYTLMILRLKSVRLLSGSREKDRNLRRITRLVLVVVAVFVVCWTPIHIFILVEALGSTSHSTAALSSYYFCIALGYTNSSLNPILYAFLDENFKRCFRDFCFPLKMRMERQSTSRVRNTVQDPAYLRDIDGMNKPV
Intestinal-type alkaline phosphatase (Mus musculus, UniProt P24822), sequence (P24822 whole entry): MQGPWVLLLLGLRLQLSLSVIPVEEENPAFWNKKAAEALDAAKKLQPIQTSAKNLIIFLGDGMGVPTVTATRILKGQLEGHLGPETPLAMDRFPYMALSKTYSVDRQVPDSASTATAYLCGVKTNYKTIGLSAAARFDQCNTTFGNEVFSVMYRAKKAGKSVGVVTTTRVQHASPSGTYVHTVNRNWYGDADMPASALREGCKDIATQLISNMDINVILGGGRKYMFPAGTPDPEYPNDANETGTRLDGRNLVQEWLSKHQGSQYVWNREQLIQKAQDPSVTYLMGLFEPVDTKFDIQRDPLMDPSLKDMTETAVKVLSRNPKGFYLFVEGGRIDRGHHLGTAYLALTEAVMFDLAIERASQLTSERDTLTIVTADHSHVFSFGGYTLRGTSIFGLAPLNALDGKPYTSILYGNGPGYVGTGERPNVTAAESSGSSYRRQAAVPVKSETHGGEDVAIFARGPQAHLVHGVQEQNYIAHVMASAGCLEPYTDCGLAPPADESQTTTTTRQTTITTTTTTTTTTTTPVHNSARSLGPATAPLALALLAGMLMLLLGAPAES
Sphingosine 1-phosphate receptor 1, sequence (P21453 whole entry): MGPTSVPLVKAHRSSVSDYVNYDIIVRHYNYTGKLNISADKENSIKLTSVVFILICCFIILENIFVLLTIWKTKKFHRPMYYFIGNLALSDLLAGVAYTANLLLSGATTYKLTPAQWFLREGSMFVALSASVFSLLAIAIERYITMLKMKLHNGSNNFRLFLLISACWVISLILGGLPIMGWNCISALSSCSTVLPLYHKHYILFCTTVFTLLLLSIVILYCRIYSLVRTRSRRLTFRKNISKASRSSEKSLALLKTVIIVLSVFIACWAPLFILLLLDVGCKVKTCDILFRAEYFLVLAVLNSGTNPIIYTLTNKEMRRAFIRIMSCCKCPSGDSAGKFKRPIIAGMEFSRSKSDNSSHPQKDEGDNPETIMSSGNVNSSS
Ion channel NompC, sequence (Q7T1G6 whole entry): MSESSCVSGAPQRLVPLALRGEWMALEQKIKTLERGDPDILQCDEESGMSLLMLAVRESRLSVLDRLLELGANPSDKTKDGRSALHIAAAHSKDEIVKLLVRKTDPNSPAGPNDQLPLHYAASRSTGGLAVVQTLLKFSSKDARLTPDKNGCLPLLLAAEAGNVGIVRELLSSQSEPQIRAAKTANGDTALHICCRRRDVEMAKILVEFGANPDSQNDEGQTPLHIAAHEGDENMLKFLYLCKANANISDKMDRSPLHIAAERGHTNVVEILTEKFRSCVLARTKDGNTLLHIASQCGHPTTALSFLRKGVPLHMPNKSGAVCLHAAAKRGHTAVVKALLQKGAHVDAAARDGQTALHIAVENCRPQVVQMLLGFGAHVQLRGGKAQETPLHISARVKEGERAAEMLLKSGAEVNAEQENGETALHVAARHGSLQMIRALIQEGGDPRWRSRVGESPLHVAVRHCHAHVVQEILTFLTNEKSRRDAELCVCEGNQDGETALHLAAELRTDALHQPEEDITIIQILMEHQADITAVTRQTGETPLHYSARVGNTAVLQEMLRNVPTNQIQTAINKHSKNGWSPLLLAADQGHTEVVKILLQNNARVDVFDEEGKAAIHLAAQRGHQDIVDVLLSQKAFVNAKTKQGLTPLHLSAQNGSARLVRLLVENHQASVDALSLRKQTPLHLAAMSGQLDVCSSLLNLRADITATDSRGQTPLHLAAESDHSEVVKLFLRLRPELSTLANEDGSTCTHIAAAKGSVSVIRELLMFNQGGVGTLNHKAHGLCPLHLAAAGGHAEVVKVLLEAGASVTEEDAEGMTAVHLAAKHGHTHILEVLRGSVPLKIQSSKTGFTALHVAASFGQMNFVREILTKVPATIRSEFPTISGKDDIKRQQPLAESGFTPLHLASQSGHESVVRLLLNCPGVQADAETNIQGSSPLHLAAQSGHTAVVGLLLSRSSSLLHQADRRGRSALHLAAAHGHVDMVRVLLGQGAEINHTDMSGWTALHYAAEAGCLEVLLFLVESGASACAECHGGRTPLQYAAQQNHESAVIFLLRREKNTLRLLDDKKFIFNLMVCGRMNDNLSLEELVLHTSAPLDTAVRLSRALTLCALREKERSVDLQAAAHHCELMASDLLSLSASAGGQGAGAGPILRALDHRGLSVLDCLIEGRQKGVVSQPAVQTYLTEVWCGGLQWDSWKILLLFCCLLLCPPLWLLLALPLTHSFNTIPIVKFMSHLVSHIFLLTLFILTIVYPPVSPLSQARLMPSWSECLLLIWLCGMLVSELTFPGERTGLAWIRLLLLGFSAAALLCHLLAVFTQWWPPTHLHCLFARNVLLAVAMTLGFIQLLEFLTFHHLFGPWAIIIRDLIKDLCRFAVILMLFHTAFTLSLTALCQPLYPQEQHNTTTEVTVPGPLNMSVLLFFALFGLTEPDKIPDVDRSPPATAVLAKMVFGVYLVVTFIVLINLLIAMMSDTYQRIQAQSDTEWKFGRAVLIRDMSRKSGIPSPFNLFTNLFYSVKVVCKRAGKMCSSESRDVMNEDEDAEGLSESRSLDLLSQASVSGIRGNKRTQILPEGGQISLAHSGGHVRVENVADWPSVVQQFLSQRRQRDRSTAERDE
Sphingosine 1-phosphate receptor 2, sequence (O95136 whole entry): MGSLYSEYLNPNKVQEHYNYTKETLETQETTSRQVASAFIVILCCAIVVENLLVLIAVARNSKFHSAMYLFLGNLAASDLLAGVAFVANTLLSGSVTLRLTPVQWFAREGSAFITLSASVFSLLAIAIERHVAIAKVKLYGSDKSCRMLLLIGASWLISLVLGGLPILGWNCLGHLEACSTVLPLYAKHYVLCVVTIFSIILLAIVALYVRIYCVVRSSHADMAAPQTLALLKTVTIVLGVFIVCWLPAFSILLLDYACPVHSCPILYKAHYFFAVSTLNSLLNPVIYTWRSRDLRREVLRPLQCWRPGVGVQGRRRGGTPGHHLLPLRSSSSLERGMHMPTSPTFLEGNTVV
Mu-type opioid receptor, sequence (P35372 whole entry): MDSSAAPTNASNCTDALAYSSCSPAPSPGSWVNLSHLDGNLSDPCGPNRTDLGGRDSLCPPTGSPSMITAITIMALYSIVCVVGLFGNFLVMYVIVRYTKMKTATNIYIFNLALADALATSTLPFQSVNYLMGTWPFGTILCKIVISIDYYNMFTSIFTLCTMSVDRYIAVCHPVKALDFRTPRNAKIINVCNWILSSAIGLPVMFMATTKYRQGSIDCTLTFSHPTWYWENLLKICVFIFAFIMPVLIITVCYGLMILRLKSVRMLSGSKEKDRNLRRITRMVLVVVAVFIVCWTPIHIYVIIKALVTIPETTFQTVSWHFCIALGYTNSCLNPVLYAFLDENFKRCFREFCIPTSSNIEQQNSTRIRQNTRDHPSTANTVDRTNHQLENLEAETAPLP
Sphingosine 1-phosphate receptor 5, sequence (Q9H228 whole entry): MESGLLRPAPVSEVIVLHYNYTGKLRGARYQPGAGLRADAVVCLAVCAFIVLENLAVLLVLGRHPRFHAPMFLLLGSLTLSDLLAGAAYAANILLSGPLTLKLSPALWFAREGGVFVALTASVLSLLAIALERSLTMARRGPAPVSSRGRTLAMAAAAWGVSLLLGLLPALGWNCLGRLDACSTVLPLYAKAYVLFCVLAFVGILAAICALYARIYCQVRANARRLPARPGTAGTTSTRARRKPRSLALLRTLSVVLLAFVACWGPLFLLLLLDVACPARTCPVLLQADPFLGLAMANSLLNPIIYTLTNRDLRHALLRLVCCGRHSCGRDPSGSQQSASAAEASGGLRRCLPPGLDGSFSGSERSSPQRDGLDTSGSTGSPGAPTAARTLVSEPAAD

In the case of `CCc1cccc(CC)c1NC(=O)c1ccc(-c2cc(Cl)ccc2Cl)o1`, the IC50 [1] is reported as > 25 µM (inactive), the IC50 [2] is reported as > 25 µM (inactive) and the CC50 [3] is reported as > 20 µM (inactive). For the same compound, the IC50 [4] was > 25 µM (inactive) and the IC50 [5] was > 25 µM (inactive).
For `Cc1cc(Br)ccc1SCC(=O)OC/C(O)=C(\C#N)c1nc2ccccc2[nH]1`, the EC50 [6] was 13.4 µM (active), the IC50 [7] was > 20 µM (inactive) and the IC50 [8] was > 20 µM (inactive). The IC50 [9] was > 100 µM (inactive), the IC50 (Tumor necrosis factor) was > 20 µM (inactive) and the EC50 [10] was 24.1 µM (active). The IC50 (HEK293) was > 20 µM (inactive) and the EC50 [11] was 27.5 µM (active).
In the case of `COC(=O)C1CCN(Cc2ccc(OCCCN3CCN(c4ccc([N+](=O)[O-])cc4)CC3)cc2)CC1`, the EC50 (cells) is reported as > 29.9 µM (inactive), the IC50 (Galanin receptor type 3) is reported as 1.33 µM (active) and the EC50 [12] is reported as 0.257 µM (active). For the same compound, the IC50 [13] was > 79.4 µM (inactive), the IC50 [14] was > 79.4 µM (inactive) and the EC50 [15] was > 30 µM (not active). For the same compound, the IC50 [16] was > 79.4 µM (inactive).
For `C/C(=N\OCc1nc2ccccc2c(=O)n1/N=C/c1ccc(Cl)cc1)c1ccccc1`, the IC50 (SUMO E1/E2) was > 100 µM (inactive).
With `COc1ccc(CCN2C(=O)CS/C2=N\c2ccc(C(C)C)cc2)cc1OC` the AC50 [17] was 7.07 µM (active), the EC50 (Mu-type opioid receptor) was > 32 µM (inactive) and the EC50 (Mucolipin-3) was > 29.9 µM (not active). For the same compound, the EC50 [18] was > 32 µM (inactive), the EC50 (Ion channel NompC) was > 29.9 µM (not active) and the EC50 [19] was 5.88 µM. The IC50 [20] was > 32 µM (inactive), the EC50 [21] was 6.83 µM and the AC50 [22] was 4.49 µM (active). For the same compound, the AC50 [23] was 5.37 µM (active).
